The values below come from patent US20250179049A1, “SALTS OF HETEROCYCLIC INHIBITORS OF MONOCARBOXYLATE TRANSPORTER 4 FOR THE TREATMENT OF DISEASE” (Vettore, LLC, priority 2022, published 2025).

Counter-ions that a name gives are not always drawn.

Series [1] in a line: Dynamic vapor sorption (DVS). The class given is physicochemical. The conditions noted are these: 25° C. From the text:
The Form B tris salt is an off-white crystalline powder consisting of small particles. […] (ΔH=111 J/g).

Series [2] in a line: Solid-state stability of API, 2 weeks storage. The format is physicochemical. The procedure:
Stability of the solid API was assessed after storage at the following conditions for 2 weeks: • 25° C./58% RH (closed) • 25° C./58% RH (open) • 40° C./75% RH (closed) • 40° C./75% RH (open) • 80° C./ambient RH (closed)

Series [3] can be described thus: Kinetic solubility in biorelevant media. The format is physicochemical. The conditions noted are these: for solubility at 1 h / solubility at 4 h / solubility at 24 h: thermodynamic from solid; for solubility at 1 h: t = 1 hour; for solubility at 4 h: t = 4 hours; for solubility at 24 h: t = 24 hours.
Series [4] has as its system bleomycin-induced lung fibrosis. The series is described as follows: Bleomycin-induced lung fibrosis model. The class given is in vivo, mice. The conditions noted are these: therapeutic mode; Compound 1 3 mg/kg BID; pirfenidone 100 mg/kg BID; nintedanib 50 mg/kg QD, oral gavage. The procedure: The reduction of lung fibrosis upon MCT4 inhibition is coupled with changes in serum metabolites that indicates turnover of extracellular matrix protein and increased fatty acid oxidation. […] The effects of Compound 1, alone or in combination with approved IPF drugs pirfenidone or nintedanib, were studied in the bleomycin-induced lung fibrosis model in therapeutic mode. Compound 1 was dosed at 3 mg/kg, BID; pirfenidone was dosed at 100 mg/kg, BID; and nintedanib was dosed at 50 mg/kg, QD, all via oral gavage.

Setting [5] is: fasted-state simulated gastric fluid (FaSSGF), fassgf or other biorelevant, FaSSGF pH 1.6, room temperature.
The mark [6] stands for this setting: fasted-state simulated intestinal fluid (FaSSIF), FaSSIF #2 pH 6.5, room temperature.
The mark [7] stands for this setting: fed-state simulated intestinal fluid (FeSSIF), FeSSIF #2 pH 5.8, room temperature.

As for `CC(C)(OCc1cc(-c2cccc(OC3CCC3)c2)n(-c2ccccc2N2CCC2)n1)C(=O)O` [tris salt Form B], in series [1] (5 to 95% RH), the Hygroscopicity result is “non-hygroscopic”. For the same compound, the Weight change entry in series [1] (between 5 and 95% RH) is listed as “approximately 0.1%”. For the same compound, in series [2] (25° C. - 58% RH (c), 2 weeks), the Content was determined as 101.1 % w/w, the “Impurity RRT 0.60” value is given as <0.05 % area, the “Impurity RRT 0.86” value is <0.05 % area and the “Impurity RRT 0.89” value is reported as <0.05 % area. Moreover, in series [2] (25° C. - 58% RH (c), 2 weeks), the “Impurity RRT 0.92” value is given as 0.13 % area, the “Impurity RRT 1.21” value is <0.05 % area, the “Main Peak” value came to 99.78 % Area and the “Total Impurities” value is listed as 0.22 % area. In addition, the XRPD entry in series [2] (25° C. - 58% RH (c), 2 weeks) is “Consistent with Tris salt (Grp B)”. Further, in series [2] (25° C. - 58% RH (o), 2 weeks), the Content is listed as 101.0 % w/w, the “Impurity RRT 0.60” value is <0.05 % area, the “Impurity RRT 0.86” value is <0.05 % area and the “Impurity RRT 0.89” value is <0.05 % area. Moreover, in series [2] (25° C. - 58% RH (o), 2 weeks), the “Impurity RRT 0.92” value is 0.13 % area, the “Impurity RRT 1.21” value is <0.05 % area, the “Main Peak” value stood at 99.78 % Area and the “Total Impurities” value was found to be 0.22 % area. The XRPD result in series [2] (25° C. - 58% RH (o), 2 weeks) is “Consistent with Tris salt (Grp B)”. Moreover, the “Chemical or physical changes on storage” value in series [2] (25° C./58% RH, 40° C./75% RH (closed and open), 80° C./ambient RH (closed), 2 weeks) is reported as “No significant chemical or physical changes were observed”. Moreover, in series [2] (40° C. - 75% RH (c), 2 weeks), the Content is reported as 101.3 % w/w, the “Impurity RRT 0.60” value was <0.05 % area, the “Impurity RRT 0.86” value is <0.05 % area and the “Impurity RRT 0.89” value is recorded as <0.05 % area. Further, in series [2] (40° C. - 75% RH (c), 2 weeks), the “Impurity RRT 0.92” value stood at 0.13 % area, the “Impurity RRT 1.21” value was <0.05 % area, the “Main Peak” value is recorded as 99.75 % Area and the “Total Impurities” value was determined as 0.25 % area. Besides, in series [2] (40° C. - 75% RH (c), 2 weeks), the XRPD result is reported as “Consistent with Tris salt (Grp B)”. Besides, in series [2] (40° C. - 75% RH (o), 2 weeks), the Content worked out at 101.1 % w/w, the “Impurity RRT 0.60” value was <0.05 % area, the “Impurity RRT 0.86” value is reported as <0.05 % area and the “Impurity RRT 0.89” value is given as <0.05 % area. Also, in series [2] (40° C. - 75% RH (o), 2 weeks), the “Impurity RRT 0.92” value came out at 0.13 % area, the “Impurity RRT 1.21” value was <0.05 % area, the “Main Peak” value came to 99.77 % Area and the “Total Impurities” value is recorded as 0.23 % area. Also, the XRPD result in series [2] (40° C. - 75% RH (o), 2 weeks) is “Consistent with Tris salt (Grp B)”. In series [2] (80° C. (c), 2 weeks), the Content is 101.0 % w/w, the “Impurity RRT 0.60” value is listed as <0.05 % area, the “Impurity RRT 0.86” value is reported as <0.05 % area and the “Impurity RRT 0.89” value is recorded as <0.05 % area. Also, in series [2] (80° C. (c), 2 weeks), the “Impurity RRT 0.92” value is 0.13 % area, the “Impurity RRT 1.21” value is recorded as <0.05 % area, the “Main Peak” value was found to be 99.75 % Area and the “Total Impurities” value is on record as 0.25 % area. In addition, the XRPD result in series [2] (80° C. (c), 2 weeks) was “Consistent with Tris salt (Grp B)”. In series [2] (Initial), the Content is 101.2 % w/w, the “Impurity RRT 0.60” value is recorded as <0.05 % area, the “Impurity RRT 0.86” value is <0.05 % area and the “Impurity RRT 0.89” value is <0.05 % area. In series [2] (Initial), the “Impurity RRT 0.92” value came to 0.13 % area, the “Impurity RRT 1.21” value is reported as <0.05 % area, the “Main Peak” value worked out at 99.81 % Area and the “Total Impurities” value was found to be 0.19 % area. Besides, in series [2] (Initial), the XRPD result is recorded as “Consistent with Tris salt (Grp B)”. The Solubility description result in series [3] (FaSSGF after 1, 4 and 24 hours) is “practically insoluble”. In series [3] (setting [5]), this compound registered a solubility at 1 h of 0.46 µg/mL, a solubility at 4 h of 0.35 µg/mL and a solubility at 24 h of 0.39 µg/mL. Moreover, the solubility in series [3] (fasted-state simulated intestinal fluid (FaSSIF), pH 6.5, thermodynamic from solid, FaSSIF, before gradual decrease, read-out: Solubility, initial) was ≥ 3000 µg/mL. In series [3] (setting [6]), the solubility at 1 h is 1110 µg/mL, the solubility at 4 h was 851 µg/mL and the solubility at 24 h is 733 µg/mL. In addition, the kinetic solubility in series [3] (fed-state simulated intestinal fluid (FeSSIF), pH 5.8, thermodynamic from solid, FeSSIF, before precipitation, read-out: Kinetic solubility, initially in solution) was ≥ 3000 µg/mL. In series [3] (setting [7]), this compound registered a solubility at 1 h of 99 µg/mL, a solubility at 4 h of 96 µg/mL and a solubility at 24 h of 95 µg/mL.

For the compound `Cc1ccc(=O)n(-c2ccccc2)c1` [pirfenidone, reference compound], the “Additive effect upon Ashcroft Score or αSMA quantitation when added to Compound 1” value in series [4] is “did not produce a statistically significant additive effect”.

Turning to `COC(=O)c1ccc2c(c1)NC(=O)/C2=C(\Nc1ccc(N(C)C(=O)CN2CCN(C)CC2)cc1)c1ccccc1` [nintedanib, reference compound], the “Additive effect upon Ashcroft Score or αSMA quantitation when added to Compound 1” value in series [4] is recorded as “did not produce a statistically significant additive effect”.
